Data published in US12258328B2, “6-membered heteroaryl-containing aminopyridine compounds as EGFR inhibitors” (YUHAN CORPORATION, priority 2021, dated 2025).
Like-named read-outs stand apart in the source and are kept apart here.

Tests used:
[1] = target: EGFR del19/T790M/C797S (Homo sapiens, UniProt P00533, C797S/DEL746-750/T790M); experiment: Biochemical EGFR kinase assay (Lance Ultra TR-FRET), triple mutant del19/T790M/C797S
Outline: (§1)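 Enzyme reactions lasted 1 hour at room temperature with test compounds between 0.003 and 10 μM, followed by 10 mM EDTA quench.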

[2] = target: EGFR L858R/T790M/C797S (Homo sapiens, UniProt P00533, C797S/L858R/T790M); experiment: Biochemical EGFR kinase assay (Lance Ultra TR-FRET), triple mutant L858R/T790M/C797S
Outline: as §1

[3] = target: EGFR del19/C797S (Homo sapiens, UniProt P00533, C797S/DEL746-750); experiment: Biochemical EGFR kinase assay (Lance Ultra TR-FRET), double mutant del19/C797S
Outline: as §1

[4] = target: EGFR L858R/C797S (Homo sapiens, UniProt P00533, C797S/L858R); experiment: Biochemical EGFR kinase assay (Lance Ultra TR-FRET), double mutant L858R/C797S
Outline: as §1

[5] = target: EGFR wildtype (Homo sapiens, UniProt P00533); experiment: Biochemical EGFR kinase assay (Lance Ultra TR-FRET), wildtype
Outline: as §1

[6] = ATP at Km, read-out: IC50 del19/T790M/C797S, Km ATP
[7] = IC50 del19/T790M/C797S, 100 μM ATP
[8] = ATP at Km, read-out: IC50 L858R/T790M/C797S, Km ATP
[9] = ATP at Km, read-out: IC50 del19/C797S, Km ATP
[10] = ATP at Km, read-out: IC50 L858R/C797S, Km ATP
[11] = ATP at Km, read-out: IC50 WT, Km ATP
[12] = Km ATP, read-out: IC50 del19/T790M/C797S (nM) Km ATP
[13] = Km ATP, read-out: IC50 L858R/T790M/C797S (nM) Km ATP
[14] = Km ATP, read-out: IC50 del19/C797S (nM) Km ATP
[15] = Km ATP, read-out: IC50 L858R/C797S (nM) Km ATP
[16] = Km ATP, read-out: IC50 WT (nM) Km ATP
[17] = IC50 del19/T790M/C797S (nM) 100 μM ATP, 100 μM ATP
[18] = IC50 L858R/T790M/C797S (nM) 100 μM ATP, 100 μM ATP
[19] = IC50 del19/C797S (nM) 100 μM ATP, 100 μM ATP
[20] = IC50 L858R/C797S (nM) 100 μM ATP, 100 μM ATP
[21] = IC50 WT (nM) 100 μM ATP, 100 μM ATP
[22] = IC50 L858R/T790M/C797S, 100 μM ATP

Sequence of EGFR del19/T790M/C797S (P00533 with tags, fused parts or gaps DEL746-750/T790M/C797S): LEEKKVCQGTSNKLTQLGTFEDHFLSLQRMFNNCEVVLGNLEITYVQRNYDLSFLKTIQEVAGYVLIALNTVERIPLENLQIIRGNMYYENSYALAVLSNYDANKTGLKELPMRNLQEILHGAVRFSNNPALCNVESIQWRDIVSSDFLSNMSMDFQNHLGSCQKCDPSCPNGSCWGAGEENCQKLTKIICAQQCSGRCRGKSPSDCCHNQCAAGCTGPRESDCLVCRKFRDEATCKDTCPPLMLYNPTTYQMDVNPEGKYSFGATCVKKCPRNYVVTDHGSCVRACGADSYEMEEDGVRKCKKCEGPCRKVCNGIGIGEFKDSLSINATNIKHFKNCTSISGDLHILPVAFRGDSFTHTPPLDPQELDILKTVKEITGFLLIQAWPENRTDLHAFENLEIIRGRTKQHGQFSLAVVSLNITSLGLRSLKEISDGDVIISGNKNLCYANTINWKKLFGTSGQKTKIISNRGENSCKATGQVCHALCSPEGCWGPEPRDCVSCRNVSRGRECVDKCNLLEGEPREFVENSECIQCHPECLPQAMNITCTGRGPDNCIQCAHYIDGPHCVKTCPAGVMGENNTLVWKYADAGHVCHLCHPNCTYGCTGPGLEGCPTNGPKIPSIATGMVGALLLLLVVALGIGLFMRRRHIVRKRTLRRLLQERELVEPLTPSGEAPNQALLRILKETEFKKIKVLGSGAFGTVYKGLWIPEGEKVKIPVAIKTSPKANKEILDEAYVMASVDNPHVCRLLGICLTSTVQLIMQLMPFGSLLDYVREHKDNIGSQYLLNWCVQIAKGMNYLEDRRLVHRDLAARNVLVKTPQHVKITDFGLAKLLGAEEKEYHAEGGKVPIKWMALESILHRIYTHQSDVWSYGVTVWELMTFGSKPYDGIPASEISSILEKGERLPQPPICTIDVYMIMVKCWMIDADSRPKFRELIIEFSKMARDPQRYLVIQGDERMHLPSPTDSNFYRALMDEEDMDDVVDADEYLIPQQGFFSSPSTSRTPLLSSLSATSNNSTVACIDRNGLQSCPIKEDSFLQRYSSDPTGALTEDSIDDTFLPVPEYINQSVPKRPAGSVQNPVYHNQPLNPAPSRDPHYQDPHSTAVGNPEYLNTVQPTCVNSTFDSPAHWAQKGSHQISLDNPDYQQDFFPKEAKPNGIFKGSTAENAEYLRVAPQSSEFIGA
Sequence of EGFR L858R/C797S (P00533 25-1210 C797S/L858R): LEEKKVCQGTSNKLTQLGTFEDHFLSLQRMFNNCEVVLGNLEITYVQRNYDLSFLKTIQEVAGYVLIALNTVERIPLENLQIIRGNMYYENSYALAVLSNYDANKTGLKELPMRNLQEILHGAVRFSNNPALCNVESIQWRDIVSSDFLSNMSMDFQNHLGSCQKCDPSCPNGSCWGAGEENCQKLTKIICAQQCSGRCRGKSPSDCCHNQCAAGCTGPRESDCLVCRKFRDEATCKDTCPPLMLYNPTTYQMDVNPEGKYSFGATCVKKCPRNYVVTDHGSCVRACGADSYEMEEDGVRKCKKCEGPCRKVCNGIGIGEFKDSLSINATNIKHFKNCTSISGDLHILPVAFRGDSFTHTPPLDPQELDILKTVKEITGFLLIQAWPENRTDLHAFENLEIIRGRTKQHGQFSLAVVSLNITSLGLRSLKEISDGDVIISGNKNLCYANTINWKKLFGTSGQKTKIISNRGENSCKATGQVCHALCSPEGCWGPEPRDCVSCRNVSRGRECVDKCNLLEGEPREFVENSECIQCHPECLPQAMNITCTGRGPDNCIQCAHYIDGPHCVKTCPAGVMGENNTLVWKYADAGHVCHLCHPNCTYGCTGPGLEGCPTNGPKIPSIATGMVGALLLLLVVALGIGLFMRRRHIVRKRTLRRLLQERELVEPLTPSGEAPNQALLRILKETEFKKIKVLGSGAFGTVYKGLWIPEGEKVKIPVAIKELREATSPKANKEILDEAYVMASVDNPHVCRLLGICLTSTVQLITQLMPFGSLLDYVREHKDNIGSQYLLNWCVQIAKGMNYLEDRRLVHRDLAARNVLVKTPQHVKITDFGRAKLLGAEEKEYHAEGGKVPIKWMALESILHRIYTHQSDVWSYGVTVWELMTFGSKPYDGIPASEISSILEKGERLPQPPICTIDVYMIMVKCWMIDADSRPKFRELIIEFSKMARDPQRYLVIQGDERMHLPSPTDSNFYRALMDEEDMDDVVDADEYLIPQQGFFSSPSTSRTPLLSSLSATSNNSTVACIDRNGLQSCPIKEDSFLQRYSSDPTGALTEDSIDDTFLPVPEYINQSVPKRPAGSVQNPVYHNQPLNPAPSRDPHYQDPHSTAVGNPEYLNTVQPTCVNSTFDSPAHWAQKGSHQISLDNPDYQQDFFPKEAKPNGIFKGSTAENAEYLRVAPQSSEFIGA
Sequence of EGFR del19/C797S (P00533 with tags, fused parts or gaps DEL746-750/C797S): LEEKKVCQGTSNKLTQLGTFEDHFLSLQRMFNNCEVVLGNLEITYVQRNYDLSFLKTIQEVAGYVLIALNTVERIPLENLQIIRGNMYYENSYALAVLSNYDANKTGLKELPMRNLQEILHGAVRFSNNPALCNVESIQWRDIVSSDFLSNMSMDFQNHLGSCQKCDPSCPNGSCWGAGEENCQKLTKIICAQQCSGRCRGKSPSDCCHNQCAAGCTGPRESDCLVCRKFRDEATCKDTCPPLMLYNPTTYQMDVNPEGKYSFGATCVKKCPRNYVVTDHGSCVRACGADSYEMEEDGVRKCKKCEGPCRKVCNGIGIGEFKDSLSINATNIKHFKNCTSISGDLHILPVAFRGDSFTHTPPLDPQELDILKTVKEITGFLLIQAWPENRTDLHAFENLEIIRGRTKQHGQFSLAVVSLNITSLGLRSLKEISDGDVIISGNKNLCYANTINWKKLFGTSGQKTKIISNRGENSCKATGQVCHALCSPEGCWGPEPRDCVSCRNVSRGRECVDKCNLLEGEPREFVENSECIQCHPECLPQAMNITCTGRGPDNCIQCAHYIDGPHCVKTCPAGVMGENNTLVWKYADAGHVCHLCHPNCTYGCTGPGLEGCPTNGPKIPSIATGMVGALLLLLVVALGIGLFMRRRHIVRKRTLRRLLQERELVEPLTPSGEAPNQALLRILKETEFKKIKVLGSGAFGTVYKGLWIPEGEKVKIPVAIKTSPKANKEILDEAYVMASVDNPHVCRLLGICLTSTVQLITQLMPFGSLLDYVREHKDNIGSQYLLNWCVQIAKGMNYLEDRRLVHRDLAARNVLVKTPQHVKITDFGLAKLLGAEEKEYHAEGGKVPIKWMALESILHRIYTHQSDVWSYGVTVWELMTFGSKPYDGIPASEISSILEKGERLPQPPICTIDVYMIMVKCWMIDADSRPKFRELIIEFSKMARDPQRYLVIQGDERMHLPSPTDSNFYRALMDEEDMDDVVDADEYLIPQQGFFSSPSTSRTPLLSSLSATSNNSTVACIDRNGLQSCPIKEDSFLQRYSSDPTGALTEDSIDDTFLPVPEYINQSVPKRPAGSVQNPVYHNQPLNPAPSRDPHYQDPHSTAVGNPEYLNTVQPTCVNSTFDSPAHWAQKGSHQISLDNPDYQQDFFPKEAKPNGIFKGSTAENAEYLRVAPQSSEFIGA
Sequence of EGFR L858R/T790M/C797S (P00533 25-1210 T790M/C797S/L858R): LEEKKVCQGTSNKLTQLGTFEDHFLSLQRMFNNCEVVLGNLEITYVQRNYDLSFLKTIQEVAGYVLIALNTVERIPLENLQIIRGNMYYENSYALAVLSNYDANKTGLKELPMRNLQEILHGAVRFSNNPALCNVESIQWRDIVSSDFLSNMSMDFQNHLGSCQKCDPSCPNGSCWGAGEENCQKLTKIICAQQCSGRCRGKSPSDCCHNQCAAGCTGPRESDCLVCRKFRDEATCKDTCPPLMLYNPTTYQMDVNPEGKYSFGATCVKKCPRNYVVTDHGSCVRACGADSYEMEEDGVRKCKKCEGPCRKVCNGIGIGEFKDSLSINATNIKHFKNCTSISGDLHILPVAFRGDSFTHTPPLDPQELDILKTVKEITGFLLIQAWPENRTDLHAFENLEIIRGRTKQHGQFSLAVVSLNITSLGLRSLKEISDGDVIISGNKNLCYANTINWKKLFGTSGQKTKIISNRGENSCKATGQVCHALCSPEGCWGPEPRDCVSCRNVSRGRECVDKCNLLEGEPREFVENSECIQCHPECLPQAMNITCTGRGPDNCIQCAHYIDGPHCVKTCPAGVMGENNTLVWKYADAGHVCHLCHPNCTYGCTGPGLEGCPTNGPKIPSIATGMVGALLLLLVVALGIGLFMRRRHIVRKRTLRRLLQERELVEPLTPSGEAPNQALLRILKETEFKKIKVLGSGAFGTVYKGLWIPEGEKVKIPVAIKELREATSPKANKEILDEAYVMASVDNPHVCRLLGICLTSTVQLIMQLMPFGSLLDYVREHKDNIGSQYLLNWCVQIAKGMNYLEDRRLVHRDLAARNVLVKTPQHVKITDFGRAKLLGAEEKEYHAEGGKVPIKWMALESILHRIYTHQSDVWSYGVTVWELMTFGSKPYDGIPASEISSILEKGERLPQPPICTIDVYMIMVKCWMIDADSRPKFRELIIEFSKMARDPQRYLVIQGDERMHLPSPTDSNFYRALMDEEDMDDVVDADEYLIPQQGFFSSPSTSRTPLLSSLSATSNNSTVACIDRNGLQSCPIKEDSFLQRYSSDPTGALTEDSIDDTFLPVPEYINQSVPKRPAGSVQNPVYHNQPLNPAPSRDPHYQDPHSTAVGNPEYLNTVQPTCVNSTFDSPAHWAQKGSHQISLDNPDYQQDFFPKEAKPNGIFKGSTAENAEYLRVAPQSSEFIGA

IC50 [1, 6] | IC50 [1, 7] | IC50 [2, 8] | IC50 [3, 9] | IC50 ([3]; IC50 del19/C797S, 100 μM ATP) | IC50 [4, 10] | IC50 ([4]; IC50 L858R/C797S, 100 μM ATP) | IC50 [5, 11] | IC50 ([5]; IC50 WT, 100 μM ATP) | IC50 [1, 12] | IC50 [2, 13] | IC50 [3, 14] | IC50 [4, 15] | IC50 [5, 16] | IC50 [1, 17] | IC50 [2, 18] | IC50 [3, 19] | IC50 [4, 20] | IC50 [5, 21] | IC50 [2, 22] | SMILES
2 nM | 2.9 nM | 0.6 nM | 1.7 nM | 5 nM | 0.9 nM | 6.6 nM | 11.9 nM | > 10000 nM |  |  |  |  |  |  |  |  |  |  |  | C[C@]1(O)CC[C@@H](Nc2cc(Nc3ccnc(-c4cnn(S(=O)(=O)C5CC5)c4)n3)ncc2-c2cc(NCCN3CCOCC3)ccn2)CC1 [Example 279, (1s,4s)-4-((6′-((2-(1-(Cyclopropylsulfonyl)-1H-pyrazol-4-yl)pyrimidin-4-yl)amino)-4 ((2-morpholinoethyl)amino)-[2,3′-bipyridin]-4′-yl)amino)-1-methylcyclohexan-1-ol]
4.4 nM | 4.7 nM | 1.6 nM | 0.9 nM | 3.9 nM | 2.2 nM | 11.2 nM | 9.8 nM | > 10000 nM |  |  |  |  |  |  |  |  |  |  |  | C[C@]1(O)CC[C@@H](Nc2cc(Nc3ccnc(-c4cnn(S(=O)(=O)C5CC5)c4)n3)ncc2-c2cc(NCCC(F)(F)F)ccn2)CC1 [Example 277, (1s,4s)-4-((6′-((2-(1-(Cyclopropylsulfonyl)-1H-pyrazol-4-yl)pyrimidin-4-yl)amino)-4-((3,3,3-trifluoropropyl)amino)-[2,3′-bipyridin]-4′-yl)amino)-1-methylcyclohexan-1-ol]
 |  |  |  |  |  |  |  |  | 0.5 nM | 0.2 nM | 4.6 nM | 2.9 nM | 22.6 nM |  |  |  |  |  |  | CC(C)Nc1cc(Nc2ccnc(-c3cnn(S(=O)(=O)C4CC4)c3)n2)ncc1-c1cnc(C(C)(C)O)cn1 [Example 121, 2-(5-(6-((2-(1-(Cyclopropylsulfonyl)-1H-pyrazol-4-yl)pyrimidin-4-yl)amino)-4-(isopropylamino)pyridin-3-yl)pyrazin-2-yl)propan-2-ol]
 |  |  |  |  |  |  |  |  | 0.3 nM | 0.2 nM | 0.2 nM | 0.03 nM | 0.7 nM | 0.5 nM | 0.2 nM | 0.7 nM | 0.4 nM | 198 nM |  | CC(C)(O)c1ccnc(-c2cnc(Nc3ccnc(-c4cnn(S(=O)(=O)C5CC5)c4)n3)cc2N[C@H]2CC[C@@H](CO)CC2)c1 [Example 111, 2-(6′-((2-(1-(Cyclopropylsulfonyl)-1H-pyrazol-4-yl)pyrimidin-4-yl)amino)-4′-(((1s,4s)-4-(hydroxymethyl)cyclohexyl)amino)-[2,3′-bipyridin]-4-yl)propan-2-ol]
 |  |  |  |  |  |  |  |  | 0.1 nM | 0.1 nM | 0.4 nM | 0.6 nM | 2.2 nM | 5.9 nM | 0.1 nM | 0.5 nM | 4.7 nM | 992 nM |  | CC(C)(O)c1ccc(-c2cnc(Nc3ccnc(-c4cnn(S(=O)(=O)C5CC5)c4)n3)cc2N[C@H]2CC[C@@H](CO)CC2)nn1 [Example 87, 2-(6-(6-((2-(1-(Cyclopropylsulfonyl)-1H-pyrazol-4-yl)pyrimidin-4-yl)amino)-4-(((1s,4s)-4-(hydroxymethyl)cyclohexyl)amino)pyridin-3-yl)pyridazin-3-yl)propan-2-ol]
 |  |  |  |  |  |  |  |  | 2.7 nM | 0.9 nM | 3.9 nM | 6 nM | 7.2 nM | 4.4 nM |  | 13.3 nM | 170 nM | > 10000 nM |  | O=S(=O)(C1CC1)n1cc(-c2nccc(Nc3cc(N[C@H]4CC[C@@H](CCO)CC4)c(-c4ccc(C(F)F)cn4)cn3)n2)cn1 [Example 94, 2-((1s,4s)-4-((6′-((2-(1-(Cyclopropylsulfonyl)-1H-pyrazol-4-yl)pyrimidin-4-yl)amino)-5-(difluoromethyl)-[2,3′-bipyridin]-4′-yl)amino)cyclohexyl)ethan-1-ol]
0.8 nM | 0.8 nM | 0.3 nM |  | 4.7 nM | 2 nM | 8.4 nM | 4.9 nM | 5120 nM |  |  |  |  |  |  |  |  |  |  | 0.5 nM | CC1(O)CCC(Nc2cc(Nc3ccnc(-c4cnn(S(=O)(=O)C5CC5)c4)n3)ncc2-c2ccc(C(O)C(F)(F)F)cn2)CC1 (stereo not drawn) [Example 226, (1s,4s)-4-((6′-((2-(1-(Cyclopropylsulfonyl)-1H-pyrazol-4-yl)pyrimidin-4-yl)amino)-5-(2,2,2-trifluoro-1-hydroxyethyl)-[2,3′-bipyridin]-4′-yl)amino)-1-methylcyclohexan-1-ol]
 |  |  |  |  |  |  |  |  |  |  |  |  |  | 0.2 nM | 0.4 nM | 1.8 nM | 26.2 nM | > 10000 nM |  | C[C@]1(O)CC[C@@H](Nc2cc(Nc3ccnc(-c4cnn(S(=O)(=O)C5CC5)c4)n3)ncc2-c2cccc(CN3CCOCC3)n2)CC1 [Example 29, (1s,4s)-4-((6′-((2-(1-(Cyclopropylsulfonyl)-1H-pyrazol-4-yl)pyrimidin-4-yl)amino)-6-(morpholinomethyl)-[2,3′-bipyridin]-4′-yl)amino)-1-methylcyclohexan-1-ol]
0.4 nM |  | 0.1 nM | 0.2 nM |  | 0.2 nM |  | 3.2 nM |  |  |  |  |  |  |  |  |  |  |  |  | C[C@]1(O)CC[C@@H](Nc2cc(Nc3ccnc(-c4cnn(S(=O)(=O)C5CC5)c4)n3)ncc2-c2cnc(OC3CCN(CCF)CC3)cn2)CC1 [Example 153, (1s,4s)-4-((2-((2-(1-(Cyclopropylsulfonyl)-1H-pyrazol-4-yl)pyrimidin-4-yl)amino)-5-(5-((1-(2-fluoroethyl)piperidin-4-yl)oxy)pyrazin-2-yl)pyridin-4-yl)amino)-1-methylcyclohexan-1-ol]
1.9 nM |  | 0.5 nM | 1.9 nM |  | 0.9 nM |  | 2 nM |  |  |  |  |  |  |  |  |  |  |  |  | COC(c1ccc(-c2cnc(Nc3ccnc(-c4cnn(S(=O)(=O)C5CC5)c4)n3)cc2NC2CCC(CN(C)C)CC2)nc1)C(F)(F)F (stereo not drawn) [Example 262, N^6′-(2-(1-(Cyclopropylsulfonyl)-1H-pyrazol-4-yl)pyrimidin-4-yl)-N^4′-((1s,4s)-4-((dimethylamino)methyl)cyclohexyl)-5-(2,2,2-trifluoro-1-methoxyethyl)-[2,3′-bipyridine]-4′,6′-diamine]
0.5 nM | 0.3 nM | 0.2 nM | 0.2 nM | 0.5 nM | 0.3 nM | 0.7 nM | 0.7 nM | 122 nM |  |  |  |  |  |  |  |  |  |  | 0.2 nM | CN(C)CC1CCC(Nc2cc(Nc3ccnc(-c4cnn(S(=O)(=O)C5CC5)c4)n3)ncc2-c2ccc(C(C)(O)C(F)(F)F)cn2)CC1 (stereo not drawn) [Example 234, 2-(6′-((2-(1-(Cyclopropylsulfonyl)-1H-pyrazol-4-yl)pyrimidin-4-yl)amino)-4′-(((1s,4s)-4-((dimethylamino)methyl)cyclohexyl)amino)-[2,3′-bipyridin]-5-yl)-1,1,1-trifluoropropan-2-ol]
 |  |  |  |  |  |  |  |  | 0.3 nM | 0.1 nM | 0.5 nM | 0.3 nM | 0.5 nM | 0.3 nM | 0.3 nM | 0.8 nM | 2.4 nM | 294 nM |  | C[C@]1(O)CC[C@@H](Nc2cc(Nc3ccnc(-c4cnn(S(=O)(=O)C5CC5)c4)n3)ncc2-c2ccc(N3CCC(O)CC3)cn2)CC1 [Example 49, 1-(6′-((2-(1-(Cyclopropylsulfonyl)-1H-pyrazol-4-yl)pyrimidin-4-yl)amino)-4′-(((1s,4s)-4-hydroxy-4-methylcyclohexyl)amino)-[2,3′-bipyridin]-5-yl) piperidin-4-ol]
 | 3 nM |  |  | 23.5 nM |  | 187 nM |  | > 10000 nM |  |  |  |  |  |  |  |  |  |  | 3.8 nM | CC(C)(O)[C@H]1CC[C@@H](Nc2nccc(-c3cnc(Nc4ccnc(-c5cnn(S(=O)(=O)C6CC6)c5)n4)cc3N[C@H]3CC[C@@H](C(C)(C)O)CC3)n2)CC1 [Example 193, 2-((1s,4s)-4-((4-(6-((2-(1-(Cyclopropylsulfonyl)-1H-pyrazol-4-yl)pyrimidin-4-yl)amino)-4-(((1s,4s)-4-(2-hydroxypropan-2-yl)cyclohexyl)amino)pyridin-3-yl)pyrimidin-2-yl)amino)cyclohexyl)propan-2-ol]
8.5 nM | 2.3 nM | 5.4 nM | 27.8 nM | 30.5 nM | 25.9 nM | 289 nM | 115 nM | > 10000 nM |  |  |  |  |  |  |  |  |  |  | 9.3 nM | CC(C)(O)[C@H]1CC[C@@H](Nc2cc(Nc3ccnc(-c4cnn(S(=O)(=O)C5CC5)c4)n3)ncc2-c2ccc(CC(F)(F)F)cn2)CC1 [Example 220, 2-((1s,4s)-4-((6′-((2-(1-(Cyclopropylsulfonyl)-1H-pyrazol-4-yl)pyrimidin-4-yl)amino)-5-(2,2,2-trifluoroethyl)-[2,3′-bipyridin]-4′-yl)amino)cyclohexyl)propan-2-ol]
